{"source": "patent US20200129450A1", "about": "“COMPOSITION COMPRISING OSMUNDACETONE OR PHARMACEUTICALLY ACCEPTABLE SALT THEREOF FOR PREVENTING OR TREATING BONE DISEASE” (KORPHARM CO., LTD., priority 2016, published 2020)", "key": {"[1]": {"tested_on": "normal cell lines", "test": "MTT assay cytotoxicity, normal cell lines (summary)", "assay_type": "cell-based", "method": "(§1) The compound isolated from Osmunda japonica, prepared in section 1 of <Example 1>, was investigated for cytotoxicity using MTT assay.\n(§2) MTT assay was as follows.\n(§3) Cells were incubated at 1×10^3 cells/well in a 96-well plate containing DMEM with 10% fetal bovine serum (FBS) at 5% CO2 and 37° C., and then osmundacetone was added to the cell medium, followed by incubation for 24 hours. Thereafter, 100 μL of MTT (0.5 mg/ml PBS) was administered, followed by incubation for 2 hours. Thereafter, the medium was removed from each well, and 100 μL of DMSO was added. After incubation for 10 minutes, the absorbance was measured using a microplate reader (SPCTRA MAX 340PC, Molecular Devices, USA) at 570 nm. The absorbance is an indicator showing the number of living cells, and calculated by the following equation. The reproducibility thereof was validated by three experiments.\nCell proliferation (%)=OD550(sample)/OD550(control)"}, "[2]": {"tested_on": "mature osteoclasts", "test": "Bone resorption assay (OsteoLyse Assay Kit) with mature osteoclasts", "assay_type": "cell-based, mouse", "conditions": "8 μM (IC50 concentration), mature osteoclasts treated for 3 days, normalized by cellular DNA", "method": "The quantitative measurement of in vitro osteoclast-mediated degradation of human bone collagen was carried out using the OsteoLyse™ Assay Kit (Lonza Walkersville, Inc. Walkersville, Md., USA) according to manufacturer's instructions.\nThis assay allows a direct measurement of the release of […] into the osteoclast resorption lacuna (Delaisse et al., 2003).\nBriefly, 2×10^4 mouse bone marrow cells prepared above were dispensed in 96-well OsteoLyse™ cell culture plate coated with europium-conjugated collagen.\nThe cells were incubated in 0.1 mL of complete α-MEM per well in the presence of M-CSF (60 ng/mL) and RANKL (150 ng/mL) in the conditions of 37° C. and 5% CO2 for 6 days. Thereafter, the medium was exchanged on day 3 of the dispensing.\nIn order to measure the ability to inhibit the mature osteoclastic functions, the medium was exchanged on day 6, and osmundacetone was added at an IC50 concentration obtained from TRAP analysis.\nAfter the mature osteoclasts were treated with osmundacetone for 3 days, 10 μL of a supernatant of the cell culture was taken, and placed in a second 96-well analysis plate containing fluorophore-Releasing reagent. The degraded collagen was measured using a time-resolved fluorescence fluorimeter, Wallac Victor (Perkin Elmer, Waltham, Mass., USA). […]"}, "[3]": {"tested_on": "ALP activity in MC3T3-E1", "test": "Measurement of ALP activity in MC3T3-E1", "assay_type": "cell-based, mouse", "conditions": "MC3T3-E1, day 14, mean±s.d.", "method": "ALP activity was assessed using Quantichrom ALP Assay Kit (Bioassay Systems, Hayward, Calif., USA) according to manufacturer's instructions.\nBriefly, 3×10^3 MC3T3-E1 cells were dispensed in a 96-well plate together with […] of complete α-MEM containing ascorbic acid (50 μg/mL) and 10 mM β-glycerophosphate per well. Here, osmundacetone (10 μM and 50 μM) was added or not added, and the medium was exchanged every 3-4 days.\nOn day 14 of the incubation, the colorimetric change due to ALP activity in the cell fraction was measured using a spectrophotometer plate reader (Molecular Devices, Sunnyvale, Calif., USA) at 405 nm (Kim et al., 2016). The % activation of ALP activity was shown by comparing ALP activity of cells treated with an experimental compound and ALP activity of the non-treated control cells."}, "[4]": {"conditions": "US toxic substance regulatory agencies, Not Listed; cited from earlier work"}, "[5]": {"tested_on": "NIH3T3 mouse embryo fibroblasts", "test": "MTT assay cytotoxicity", "assay_type": "cell-based", "conditions": "NIH3T3, 24 hours, read-out: IC50 according to MTT assay", "method": "(§4) HaCaT human epidermal keratinocytes, # ATCC PCS-200-011) were incubated using Dulbecco's modified Eagle's medium (DMEM, # DMEM-HPA, Capricorn Scientific, Ebsdorfergrund, Germany) in the conditions of 37° C. and 5% CO2. NIH3T3 mouse embryo fibroblasts (# KCLB 21658), RAW264.7 murine macrophages (preosteoclast cell line, # KCLB 40071), HCT116 human colon cancer cells (# KCLB 10247), PC3 human prostate adenocarcinoma cells (# KCLB 21435), HT1080 human fibrosarcoma cells (# KCLB 1121), and B16F10 mouse malignant melanoma cells (# KCLB 80008) were purchased from the Korean Cell Line Bank, and incubated using DMEM in the conditions of 37° C. and 5% C02.\nas §1, §2\nas §3, with “Thereafter, the medium was removed from each well, and 100 μL of DMSO was added.” left out, “The reproducibility thereof was validated by three experiments.” left out"}, "[6]": {"tested_on": "B16F10 mouse melanoma", "test": "MTT assay cytotoxicity", "assay_type": "cell-based", "conditions": "B16F10, 24 hours", "method": "as §4, §1, §2\nas §3, with “Thereafter, the medium was removed from each well, and 100 μL of DMSO was added.” left out, “The reproducibility thereof was validated by three experiments.” left out"}}, "note": "Values joined by “and” are separate entries in the source; they are usually repeats but may differ in a detail not shown here. Equal values may be shown once."}
{"smiles": "CC(=O)/C=C/c1ccc(O)c(O)c1", "note": "[Osmundacetone, (3E)-4-(3,4-dihydroxyphenyl)-3-buten-2-one]", "values": [{"measurement": "cell cytotoxicity on normal cell lines", "setting": "[1]; judged against IC50 of less than 100 μM as active", "value": "did not show cell cytotoxicity"}, {"measurement": "LD50 for normal cell lines", "setting": "[1]; summary range", "value": "2,500-5,000 μM"}, {"measurement": "bone resorption function of mature osteoclasts, % that of non-treated osteoclasts", "setting": "[2]", "value": "58.7±13", "unit": "%"}, {"measurement": "% Activation of ALP activity", "setting": "[3]; 10 μM", "value": "115 ± 9.4", "unit": "%"}, {"measurement": "% Activation of ALP activity", "setting": "[3]; 50 μM", "value": "279 ± 61", "unit": "%"}, {"measurement": "% Activation of ALP activity", "setting": "[3]; 50 μM, listed as osmundacetone", "value": "279±61% and 280%"}, {"measurement": "tests of human toxicity, irritation, carcinogenicity, environmental toxicity", "setting": "[4]", "value": "harmless and safe"}, {"measurement": "IC50", "setting": "[5]", "value": "> 5", "unit": "mM"}, {"measurement": "LD50 (MTT assay)", "setting": "[6]", "value": "75.8 ± 9.2", "unit": "µM"}]}
